# Laboratory results published in ChEMBL document CHEMBL1149974, “New Oligosaccharidic Crown Ethers as Potential Drug-Targetting Vectors: Synthesis & Biological Evaluation” (1994).
# Tested on: Saccharomyces cerevisiae
# Test: Minimum inhibitory concentration required for in vitro inhibition of flocculation against cell wall galactose-specific yeast lectin (KbCWL)
# Type: functional
row,Molecule,MIC [µM]
1,"LACTOSE, ANHYDROUS",1250
2,CO[C@H]1O[C@@H](C)[C@@H](O[C@@H]2O[C@@H](CO)[C@@H](O[C@@H]3O[C@@H](CO)[C@H](O)[C@H](O)[C@@H]3O)[C@H](O)[C@@H]2O)[C@@H]2OCCOCCOc3ccccc3OCCOCCO[C@H]12,3000
3,O=C[C@H](O)[C@@H](O)[C@@H](O)[C@H](O)CO [GALACTOSE],3500

# More lines, now with the values ahead:
row,MIC [µM],Molecule
1,2650,"CO[C@H]1O[C@@H](C)[C@@H](O[C@@H]2O[C@@H](CO)[C@H](O)C(O)[C@@H]2O)C2OCCOCCOc3ccccc3OCCOCCO[C@@H]21 (single isomer, unassigned)"
2,1750,CO[C@@H]1O[C@H](CO)[C@H](O)[C@H](O)[C@H]1O
